Experimental data: patent EP0689844A1, “Complexes of vinpocetine formed with cyclodextrins, process for their preparation and pharmaceutical compositions containing them” (TECNIMEDE-SOCIEDADE TECNICO-MEDICINAL, S.A., priority 1994, dated 1996)
≈ marks a conversion by molar mass, not a printed value. Read-outs that look alike come from different tables or passages of the source.

Legend:
[1] = cited from earlier work
[2] = p.o.; cited from earlier work
[3] = solubility of vinpocetine in cyclodextrin solutions of different concentrations (phase solubility, HPLC); type: physicochemical; details: aqueous cyclodextrin solution, 37 °C, aqueous with cosolvent or surfactant or cyclodextrin, thermodynamic from solid
Experimental: 10 mg of vinpocetine, cyclodextrin in different amounts and 10 ml of distilled water were charged into 20 ml test tubes. After closing, the tubes were agitated for 24 hours at 37°C, thereafter the samples were filtrated and the filtrates were analysed by HPLC (High Performance Liquid Chromatography) in 0.1N HCl solution.

solubility at 24 h ([3]; HP-β-cyd 25.0 mM in distilled water): 5.5 µg/mL (≈ 15.7 µM) | solubility at 24 h ([3]; HP-β-cyd 50.0 mM in distilled water): 12.8 µg/mL (≈ 36.5 µM) | solubility at 24 h ([3]; HP-β-cyd 100.0 mM in distilled water): 23.2 µg/mL (≈ 66.2 µM) | solubility at 24 h ([3]; γ-cyd 12.5 mM in distilled water): 6.1 µg/mL (≈ 17.4 µM) | solubility at 24 h ([3]; γ-cyd 25.0 mM in distilled water): 12 µg/mL (≈ 34.2 µM) | solubility at 24 h ([3]; γ-cyd 50.0 mM in distilled water): 24.4 µg/mL (≈ 69.6 µM)
Compound: CCOC(=O)C1=C[C@]2(CC)CCCN3CCc4c(n1c1ccccc41)[C@@H]32 [vinpocetine, eburnamenine-14-carboxylic acid ethyl ester]
solubility ([1]; in ethanol and 0.1N HCl): dissolves well | solubility ([1]; in water, ethyl ether and hexane): poorly soluble | absolute bioavailability [2]: 6.7%
